Experimental data as given in US20150153326A1, “QUANTITATIVE ANALYSIS OF CONTACT-DEPENDENT CELL-TO-CELL TRANSFER AND DISEASE TRANSMISSION” (Bergen Teknologioverforing AS, BTO, priority 2013, published 2015).

System: HeLa-Kyoto cells
Test: contact-dependent cell-to-cell DiD organelle transfer, DiD-stained/unstained 1:400 co-culture, 3D confocal quantification
Format: cell-based
Conditions: 100 nM, added 2 hours after plating, cells fixed after 18 hours, 1:400 cell ratio
Experimental: HeLa-Kyoto cells were cultured in DMEM:F12 supplemented with 10% fetal calf serum and 1% penicillin/streptomycin (Invitrogen Detection Technologies, Carlsbad, Calif., USA) on 24-well microscopy plates (Greiner Bio-One GmbH). Cells were maintained under humidified air supplemented with 5% CO2 at 37° C. and plated with a density of approximately 35 000 cells/cm^2. After 24 hours, 200 ng (5 μl)/ml lipid analog Vybrant® DiD Cell-Labelling solution (Invitrogen Detection Technologies, Carlsbad, Calif., USA) was added to the plated cells in culture medium, incubated at 37° C. for 20 min wherein tilted 5 times. After the incubation period, the culture medium was exchanged 4 times within 2 hours. […]
Cells were imaged with a Leica confocal SP5 in resonant scanner mode (zoom 1.7; pinhole airyl; 40× 1.25NA oil immersion objective; 512×512 pixel; z-distance 1.01 μm, line-average 16; offset −1; gain 900-1000V. For the DiD-channel laser power was adjusted for each experiment to a strength resulting in approximately half a cell diameter of out-of-detection range data for average donor cells in order to quantify the transferred DiD in the surrounding cells, present in much lower quantities. For all other channels, the laser power was adjusted to few out-of-detection range pixels at the upper end of the scale. […]

## C=C1[C@@H](C)[C@H]2[C@H](Cc3ccccc3)NC(=O)[C@]23[C@H](OC(C)=O)/C=C/[C@@](C)(O)C(=O)[C@@H](C)C/C=C/[C@H]3[C@@H]1O [Cytochalasin D]
  contact-dependent cell-to-cell DiD transfer (integrated intensity of DiD signal inside acceptor cells) compared to control: substantially inhibited
